Measurements taken from patent US20050282743A1, “Molecular interactions in cells” (Arbor Vita Corporation, priority 2001, published 2005).
Values belong to the molecule of their own block, whether it stands above or below them. Ends that are not written are not given here. Peptide text beside a SMILES is read from it. * marks the point of attachment. Biotin = O=C1N[C@H]2[C@H](CS[C@H]2CCCCC(=O)*)N1

Assays:
Assay in all cases: G' assay (10 uM PL peptide), results of TABLE 7 and TABLE 12
Type in all cases: binding
[1] = target: T1, PDZ protein (GST-PDZ fusion) (Homo sapiens, UniProt Q6P0Q8)
T1 construct: made in house; host or cells: E. coli (DH5alpha, BL21 or JM109)
Summary of the method: (§1)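 Binding classes derive from A450 nm of bound biotin-tagged PL peptide. A score of 5 needs A450 above 4 in more than two repeats.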

[2] = test system: PDZ protein (GST-PDZ fusion)
Summary of the method: as §1

[3] = target: T2, PDZ protein (GST-PDZ fusion) (Homo sapiens, UniProt O75970)
T2 construct: made in house; host or cells: E. coli (DH5alpha, BL21 or JM109)
Summary of the method: as §1

[4] = target: T3, PDZ protein (GST-PDZ fusion) (Homo sapiens, UniProt Q12923); details: PDZ PTPL-1, PDZ Domain 2
T3 construct: made in house; host or cells: E. coli (DH5alpha, BL21 or JM109)
Summary of the method: as §1

[5] = PDZ KIAA807, PDZ Domain not given

T2 sequence (O75970 whole entry, the tested form may be a part): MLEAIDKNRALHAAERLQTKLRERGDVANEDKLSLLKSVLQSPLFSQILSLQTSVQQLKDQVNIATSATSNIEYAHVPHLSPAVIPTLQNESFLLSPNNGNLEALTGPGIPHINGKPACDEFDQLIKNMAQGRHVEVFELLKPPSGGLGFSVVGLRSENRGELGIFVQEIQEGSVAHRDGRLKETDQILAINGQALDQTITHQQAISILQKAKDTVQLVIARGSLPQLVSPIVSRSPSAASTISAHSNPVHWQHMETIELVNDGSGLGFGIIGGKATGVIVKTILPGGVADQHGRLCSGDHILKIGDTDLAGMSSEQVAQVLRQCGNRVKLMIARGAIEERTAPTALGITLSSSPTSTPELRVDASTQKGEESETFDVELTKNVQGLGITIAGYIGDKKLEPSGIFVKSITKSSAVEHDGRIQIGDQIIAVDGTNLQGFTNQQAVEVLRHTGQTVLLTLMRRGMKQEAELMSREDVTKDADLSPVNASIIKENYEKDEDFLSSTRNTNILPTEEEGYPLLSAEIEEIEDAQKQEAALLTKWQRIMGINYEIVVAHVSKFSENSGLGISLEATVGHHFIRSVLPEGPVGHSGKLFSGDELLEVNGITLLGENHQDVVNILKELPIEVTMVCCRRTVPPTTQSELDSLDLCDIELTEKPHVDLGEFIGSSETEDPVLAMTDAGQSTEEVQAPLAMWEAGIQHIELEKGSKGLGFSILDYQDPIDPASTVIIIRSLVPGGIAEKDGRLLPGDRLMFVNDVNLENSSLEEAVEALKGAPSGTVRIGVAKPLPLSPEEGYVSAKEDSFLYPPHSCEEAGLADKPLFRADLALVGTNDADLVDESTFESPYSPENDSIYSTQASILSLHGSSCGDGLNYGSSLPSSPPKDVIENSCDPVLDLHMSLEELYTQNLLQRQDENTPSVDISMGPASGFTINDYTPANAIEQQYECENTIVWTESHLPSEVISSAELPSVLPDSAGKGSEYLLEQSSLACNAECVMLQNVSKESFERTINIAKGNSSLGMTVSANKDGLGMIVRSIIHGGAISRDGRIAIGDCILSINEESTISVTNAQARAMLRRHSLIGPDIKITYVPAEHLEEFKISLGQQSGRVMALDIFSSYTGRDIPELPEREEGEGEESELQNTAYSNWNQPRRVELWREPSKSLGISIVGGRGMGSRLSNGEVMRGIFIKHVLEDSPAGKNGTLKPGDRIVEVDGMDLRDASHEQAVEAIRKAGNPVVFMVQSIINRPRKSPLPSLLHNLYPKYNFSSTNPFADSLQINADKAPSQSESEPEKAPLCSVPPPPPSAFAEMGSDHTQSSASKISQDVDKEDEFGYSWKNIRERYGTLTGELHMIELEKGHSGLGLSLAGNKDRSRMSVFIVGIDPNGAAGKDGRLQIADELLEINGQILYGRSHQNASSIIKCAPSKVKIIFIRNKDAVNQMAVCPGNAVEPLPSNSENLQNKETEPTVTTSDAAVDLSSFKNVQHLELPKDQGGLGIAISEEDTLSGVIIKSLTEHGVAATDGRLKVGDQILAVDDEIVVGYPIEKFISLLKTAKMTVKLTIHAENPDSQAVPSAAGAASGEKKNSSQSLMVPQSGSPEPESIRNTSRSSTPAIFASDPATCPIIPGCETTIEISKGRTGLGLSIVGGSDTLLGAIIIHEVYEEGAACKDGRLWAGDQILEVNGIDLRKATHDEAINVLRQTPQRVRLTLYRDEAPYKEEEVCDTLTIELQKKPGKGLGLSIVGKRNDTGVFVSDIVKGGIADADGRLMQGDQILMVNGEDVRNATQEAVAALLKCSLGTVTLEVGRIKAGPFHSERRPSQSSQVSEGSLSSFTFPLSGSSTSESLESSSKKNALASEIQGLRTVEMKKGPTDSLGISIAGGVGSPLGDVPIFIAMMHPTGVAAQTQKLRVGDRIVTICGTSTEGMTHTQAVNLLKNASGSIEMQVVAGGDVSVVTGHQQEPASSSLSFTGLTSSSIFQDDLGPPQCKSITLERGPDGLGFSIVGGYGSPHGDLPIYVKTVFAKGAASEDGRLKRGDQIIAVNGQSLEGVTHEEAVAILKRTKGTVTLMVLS
T1 sequence (Q6P0Q8 whole entry, the tested form may be a part): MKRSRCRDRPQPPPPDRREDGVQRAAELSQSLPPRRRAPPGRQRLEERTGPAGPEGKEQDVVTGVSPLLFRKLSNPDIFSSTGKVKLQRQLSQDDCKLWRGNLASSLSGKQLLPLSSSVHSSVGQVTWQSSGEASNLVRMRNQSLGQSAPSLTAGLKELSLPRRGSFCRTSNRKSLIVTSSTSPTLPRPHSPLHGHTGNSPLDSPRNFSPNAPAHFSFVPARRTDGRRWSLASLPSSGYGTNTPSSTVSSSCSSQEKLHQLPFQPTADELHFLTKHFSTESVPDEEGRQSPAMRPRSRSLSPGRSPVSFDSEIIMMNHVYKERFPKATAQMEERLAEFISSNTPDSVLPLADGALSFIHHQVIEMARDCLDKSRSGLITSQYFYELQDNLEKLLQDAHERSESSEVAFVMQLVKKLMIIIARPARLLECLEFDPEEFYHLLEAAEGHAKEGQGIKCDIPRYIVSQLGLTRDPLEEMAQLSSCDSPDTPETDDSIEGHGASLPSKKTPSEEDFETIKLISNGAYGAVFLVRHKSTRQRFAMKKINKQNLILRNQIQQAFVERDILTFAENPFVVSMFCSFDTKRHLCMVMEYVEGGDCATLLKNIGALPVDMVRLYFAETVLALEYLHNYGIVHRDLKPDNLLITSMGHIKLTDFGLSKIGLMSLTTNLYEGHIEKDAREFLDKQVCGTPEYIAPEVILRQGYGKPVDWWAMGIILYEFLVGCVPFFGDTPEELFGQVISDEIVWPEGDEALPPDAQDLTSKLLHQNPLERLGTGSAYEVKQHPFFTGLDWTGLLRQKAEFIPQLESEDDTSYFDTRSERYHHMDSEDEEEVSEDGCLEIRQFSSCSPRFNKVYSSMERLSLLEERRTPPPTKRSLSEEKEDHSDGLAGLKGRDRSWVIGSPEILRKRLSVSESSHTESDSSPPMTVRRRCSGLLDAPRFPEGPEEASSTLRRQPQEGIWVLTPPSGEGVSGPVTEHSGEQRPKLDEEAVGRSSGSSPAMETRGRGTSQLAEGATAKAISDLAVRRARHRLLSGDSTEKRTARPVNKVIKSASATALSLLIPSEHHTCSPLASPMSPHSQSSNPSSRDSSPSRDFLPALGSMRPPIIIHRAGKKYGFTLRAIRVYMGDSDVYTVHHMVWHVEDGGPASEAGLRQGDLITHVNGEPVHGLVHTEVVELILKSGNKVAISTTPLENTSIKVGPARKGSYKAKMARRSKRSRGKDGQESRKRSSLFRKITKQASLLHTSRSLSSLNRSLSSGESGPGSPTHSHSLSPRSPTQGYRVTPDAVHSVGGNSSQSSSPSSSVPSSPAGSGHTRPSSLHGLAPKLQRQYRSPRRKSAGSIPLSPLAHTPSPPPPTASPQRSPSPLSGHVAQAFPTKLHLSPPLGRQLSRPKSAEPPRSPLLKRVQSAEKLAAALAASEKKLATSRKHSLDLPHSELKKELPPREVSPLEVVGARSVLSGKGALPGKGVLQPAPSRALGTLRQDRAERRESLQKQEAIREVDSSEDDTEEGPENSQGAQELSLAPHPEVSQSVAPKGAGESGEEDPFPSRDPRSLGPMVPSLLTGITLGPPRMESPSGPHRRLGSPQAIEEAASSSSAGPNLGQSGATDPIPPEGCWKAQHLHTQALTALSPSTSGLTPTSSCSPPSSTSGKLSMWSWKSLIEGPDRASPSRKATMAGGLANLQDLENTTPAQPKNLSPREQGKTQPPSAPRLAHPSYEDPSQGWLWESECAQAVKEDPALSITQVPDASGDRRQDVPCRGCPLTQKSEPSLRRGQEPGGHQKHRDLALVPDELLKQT

Molecule: CC[C@H](C)[C@H](NC(=O)[C@H](CC(=O)O)NC(=O)[C@H](CCC(=O)O)NC(=O)[C@H](CCCNC(=N)N)NC(=O)[C@@H](NC(=O)CCCC[C@@H]1SC[C@@H]2NC(=O)N[C@@H]21)[C@@H](C)O)C(=O)N[C@@H](Cc1ccc(O)cc1)C(=O)N[C@H](C(=O)N[C@@H](CC(N)=O)C(=O)N[C@@H](Cc1ccc(O)cc1)C(=O)N1CCC[C@H]1C(=O)N[C@H](C(=O)N[C@@H](Cc1ccccc1)C(=O)N[C@@H](CO)C(=O)N[C@@H](CCCNC(=N)N)C(=O)N[C@@H](CCCNC(=N)N)C(=O)N1CCC[C@H]1C(=O)N[C@@H](CCCCN)C(=O)N[C@H](C(=O)N[C@@H](CCCNC(=N)N)C(=O)N[C@H](C(=O)O)C(C)C)[C@@H](C)O)[C@@H](C)O)C(C)C [DNAM-1] (Biotin-TREDIYVNYPTFSRRPKTRV-OH; C-terminus assumed)
Classification ([1]; PDZ KIAA807): 3 (A450 nm 2-3)
Classification ([1]; PDZ KIAA0807(S), PDZ Domain 1): 3 (A450 nm 2-3)
Classification ([2]; PDZ BAI-1, PDZ Domain 2): 5 (A450 nm of 4 more than 2× repeated)
Classification ([3]; PDZ MUPP-1, PDZ Domain 10): 4 (A450 nm 3-4)

Molecule: CC[C@H](C)[C@H](NC(=O)[C@H](CO)NC(=O)[C@@H](NC(=O)[C@H](Cc1ccccc1)NC(=O)[C@H](CO)NC(=O)CCCC[C@@H]1SC[C@@H]2NC(=O)N[C@@H]21)[C@@H](C)O)C(=O)N[C@@H](CC(C)C)C(=O)N[C@H](C(=O)N[C@@H](CS)C(=O)N[C@@H](Cc1c[nH]cn1)C(=O)N[C@@H](CCC(N)=O)C(=O)N[C@@H](CCCNC(=N)N)C(=O)N[C@@H](CCCNC(=N)N)C(=O)N[C@H](C(=O)N[C@@H](CCC(N)=O)C(=O)N[C@@H](CCCNC(=N)N)C(=O)N[C@@H](CCCCN)C(=O)N[C@@H](CCC(=O)O)C(=O)N[C@H](C(=O)N[C@H](C(=O)N[C@@H](C)C(=O)O)C(C)C)[C@@H](C)O)[C@@H](C)O)[C@@H](C)O [GluR5-2 (rat)]
Classification ([1]; PDZ KIAA0807(S), PDZ Domain 1): 1 (A450 nm 0-1)
Classification ([2]; PDZ BAI-1, PDZ Domain 2): 5 (A450 nm of 4 more than 2× repeated)
Classification ([3]; PDZ MUPP-1, PDZ Domain 10): 2 (A450 nm 1-2)
Classification ([3]; PDZ MUPP-1, PDZ Domain 11): 1 (A450 nm 0-1)

Molecule: CC(C)C[C@H](NC(=O)[C@H](C)NC(=O)[C@@H](NC(=O)[C@H](CCC(=O)O)NC(=O)[C@H](CCCNC(=N)N)NC(=O)[C@H](CCCNC(=N)N)NC(=O)CNC(=O)[C@H](CCC(N)=O)NC(=O)[C@H](CC(C)C)NC(=O)[C@H](CCCNC(=N)N)NC(=O)CNC(=O)CNC(=O)[C@H](CCCNC(=N)N)NC(=O)[C@H](C)NC(=O)[C@H](CO)NC(=O)[C@H](CCCNC(=N)N)NC(=O)CNC(=O)CNC(=O)[C@H](C)NC(=O)[C@H](C)NC(=O)CCCC[C@@H]1SC[C@@H]2NC(=O)N[C@@H]21)[C@@H](C)O)C(=O)O [HPV E6 33 (modified)] (Biotin-AAGGRSARGGRLQGRRETAL-OH; C-terminus assumed)
Classification ([1]; PDZ KIAA0807(S), PDZ Domain 1): 5 (A450 nm of 4 more than 2× repeated)
Classification ([2]; PDZ BAI-1, PDZ Domain 2): 5 (A450 nm of 4 more than 2× repeated)
Classification ([2]; PDZ BAI-1, PDZ Domain 5): 1 (A450 nm 0-1)
Classification ([2]; PDZ BAI-1, PDZ Domain 6): 1 (A450 nm 0-1)
Classification ([2]; PDZ FLJ 00011, PDZ Domain 1): 1 (A450 nm 0-1)
Classification ([2]; PDZ SHANK, PDZ Domain 1): 4 (A450 nm 3-4)
Classification ([3]; PDZ MUPP-1, PDZ Domain 13): 2 (A450 nm 1-2)

Molecule: CC(C)C[C@H](NC(=O)[C@H](CCCNC(=N)N)NC(=O)CNC(=O)CNC(=O)[C@H](CCCNC(=N)N)NC(=O)[C@H](C)NC(=O)[C@@H]1CCCN1C(=O)[C@H](CCCNC(=N)N)NC(=O)CNC(=O)CNC(=O)[C@@H](NC(=O)[C@H](C)NC(=O)CCCC[C@@H]1SC[C@@H]2NC(=O)N[C@@H]21)C(C)C)C(=O)N[C@@H](CCC(N)=O)C(=O)NCC(=O)N[C@@H](CCCNC(=N)N)C(=O)N[C@@H](CCCNC(=N)N)C(=O)N[C@@H](CCC(N)=O)C(=O)N[C@H](C(=O)N[C@@H](CCC(N)=O)C(=O)N[C@H](C(=O)O)C(C)C)[C@@H](C)O [HPV E6 58 (modified)] (Biotin-AVGGRPARGGRLQGRRQTQV-OH; C-terminus assumed)
Classification ([1]; PDZ KIAA0807(S), PDZ Domain 1): 5 (A450 nm of 4 more than 2× repeated)
Classification ([2]; PDZ BAI-1, PDZ Domain 2): 5 (A450 nm of 4 more than 2× repeated)
Classification ([2]; PDZ BAI-1, PDZ Domain 3): 2 (A450 nm 1-2)
Classification ([2]; PDZ BAI-1, PDZ Domain 4): 2 (A450 nm 1-2)
Classification ([2]; PDZ BAI-1, PDZ Domain 5): 2 (A450 nm 1-2)
Classification ([3]; PDZ MUPP-1, PDZ Domain 10): 3 (A450 nm 2-3)
Classification ([3]; PDZ MUPP-1, PDZ Domain 13): 1 (A450 nm 0-1)

Molecule: CC[C@H](C)[C@H](NC(=O)[C@H](CO)NC(=O)[C@H](CCC(=O)O)NC(=O)[C@H](Cc1ccc(O)cc1)NC(=O)[C@H](CC(=O)O)NC(=O)[C@H](CC(N)=O)NC(=O)[C@H](CCC(=O)O)NC(=O)[C@H](CCCCN)NC(=O)CCCC[C@@H]1SC[C@@H]2NC(=O)N[C@@H]21)C(=O)N[C@@H](CO)C(=O)N[C@@H](CC(=O)O)C(=O)N[C@@H](CC(C)C)C(=O)N[C@@H](CCC(N)=O)C(=O)N[C@@H](CCC(N)=O)C(=O)NCC(=O)N[C@@H](CCCNC(=N)N)C(=O)N[C@@H](CC(=O)O)C(=O)N[C@H](C(=O)N[C@H](C(=O)N[C@@H](CCCNC(=N)N)C(=O)N[C@@H](CC(C)C)C(=O)O)[C@@H](C)O)[C@@H](C)CC [PAG] (Biotin-KENDYESISDLQQGRDITRL-OH; C-terminus assumed)
Classification ([2]; PDZ FLJ 00011, PDZ Domain 1): 3 (A450 nm 2-3)
Classification ([2]; PDZ SHANK, PDZ Domain 1): 4 (A450 nm 3-4)

Molecule: LNETTETQRTLLNGDLQTSI (Biotin-LNETTETQRTLLNGDLQTSI) [SSTR2 (somatostatin recepor 2)]
Classification ([1]; PDZ KIAA0807(S), PDZ Domain 1): 2 (A450 nm 1-2)
Classification [1, 5]: 2 (A450 nm 1-2)
Classification ([2]; PDZ SHANK, PDZ Domain 1): 1 (A450 nm 0-1)

Molecule: QATSRNGHSARQHVVADTEL (Biotin-QATSRNGHSARQHVVADTEL) [CD34]
Classification ([2]; PDZ BAI-1, PDZ Domain 6): 1 (A450 nm 0-1)
Classification ([2]; PDZ SHANK, PDZ Domain 1): 1 (A450 nm 0-1)

Further lines, with some results ahead:

Classification ([1]; PDZ KIAA0807(S), PDZ Domain 1): 5 (A450 nm of 4 more than 2× repeated)
Classification [1, 5]: 5 (A450 nm of 4 more than 2× repeated)
Molecule: CC[C@H](C)[C@H](NC(=O)CNC(=O)[C@H](CO)NC(=O)[C@H](Cc1ccccc1)NC(=O)[C@@H](NC(=O)[C@H](CS)NC(=O)CNC(=O)CNC(=O)[C@H](C)NC(=O)[C@@H]1CCCN1C(=O)[C@@H](NC(=O)[C@@H]1CCCN1C(=O)CCCC[C@@H]1SC[C@@H]2NC(=O)N[C@@H]21)[C@@H](C)CC)[C@@H](C)O)C(=O)N[C@@H](Cc1ccccc1)C(=O)N1CCC[C@H]1C(=O)N[C@H](C(=O)N[C@@H](CC(C)C)C(=O)N[C@H](C(=O)N[C@@H](CO)C(=O)N1CCC[C@H]1C(=O)N[C@@H](CC(C)C)C(=O)O)[C@@H](C)O)[C@@H](C)O [KIA 1481] (Biotin-PIPAGGCTFSGIFPTLTSPL-OH; C-terminus assumed)
Classification ([2]; PDZ BAI-1, PDZ Domain 2): 2 (A450 nm 1-2)
Classification ([2]; PDZ BAI-1, PDZ Domain 4): 1 (A450 nm 0-1)
Classification ([2]; PDZ BAI-1, PDZ Domain 5): 3 (A450 nm 2-3)
Classification ([2]; PDZ BAI-1, PDZ Domain 6): 2 (A450 nm 1-2)
Classification ([2]; PDZ FLJ00011 (also printed FLJ 00011), PDZ Domain 1): 2 (A450 nm 1-2)
Classification ([2]; PDZ Novel PDZ, PDZ Domain 1): 1 (A450 nm 0-1)
Classification ([2]; PDZ Novel PDZ, PDZ Domain 2): 1 (A450 nm 0-1)
Classification ([2]; PDZ SHANK, PDZ Domain 1): 5 (A450 nm of 4 more than 2× repeated)

Classification [4]: 4 (A450 nm 3-4)
Molecule: CC[C@H](C)[C@H](NC(=O)[C@H](Cc1c[nH]cn1)NC(=O)[C@H](C)NC(=O)[C@H](C)NC(=O)[C@H](CO)NC(=O)[C@@H]1CCCN1C(=O)[C@H](CCCNC(=N)N)NC(=O)[C@H](CC(=O)O)NC(=O)[C@H](CCCCN)NC(=O)[C@@H]1CCCN1C(=O)[C@H](CC(=O)O)NC(=O)[C@H](CCC(=O)O)NC(=O)CCCC[C@@H]1SC[C@@H]2NC(=O)N[C@@H]21)C(=O)N[C@H](C(=O)N[C@@H](CCC(=O)O)C(=O)N[C@@H](C)C(=O)N[C@@H](CC(C)C)C(=O)N[C@@H](CCC(=O)O)C(=O)N[C@H](C(=O)N[C@@H](CC(=O)O)C(=O)N[C@H](C(=O)O)C(C)C)[C@@H](C)O)C(C)C [PDZ-binding kinase (PBK)] (Biotin-EDPKDRPSAAHIVEALETDV-OH; C-terminus assumed)
Classification ([2]; PDZ BAI-1, PDZ Domain 3): 1 (A450 nm 0-1)

Classification ([1]; PDZ KIAA0807(S), PDZ Domain 1): 1 (A450 nm 0-1)
Classification ([1]; PDZ KIAA807 (domain not given)): 1 (A450 nm 0-1)
Classification ([3]; PDZ MUPP-1, PDZ Domain 10): 1 (A450 nm 0-1)
Molecule: APC—adenomatous polyposis coli protein (ESSGTQSPKRHSGSYLVTSV)
Classification ([2]; PDZ BAI-1, PDZ Domain 2): 1 (A450 nm 0-1)
Classification ([2]; PDZ BAI-1, PDZ Domain 5): 1 (A450 nm 0-1)
Classification ([2]; PDZ FLJ 00011, PDZ Domain 1): 1 (A450 nm 0-1)

Classification ([3]; PDZ MUPP-1, PDZ Domain 13): 1 (A450 nm 0-1)
Molecule: ARHRVTSYTSSSVNVSSNL (Biotin-ARHRVTSYTSSSVNVSSNL) [IL-8RB]
Classification ([2]; PDZ BAI-1, PDZ Domain 2): 1 (A450 nm 0-1)
Classification ([2]; PDZ BAI-1, PDZ Domain 6): 1 (A450 nm 0-1)
Classification ([2]; PDZ Novel PDZ, PDZ Domain 2): 1 (A450 nm 0-1)

Classification ([1]; PDZ KIAA0807(S), PDZ Domain 1): 1 (A450 nm 0-1)
Molecule: GGGGGSGGGGGSGIESVKI [GLUR2 (glutamate receptor 2-modified)]

Classification ([1]; PDZ KIAA0807(S), PDZ Domain 1): 1 (A450 nm 0-1)
Classification [1, 5]: 1 (A450 nm 0-1)
Classification ([3]; PDZ MUPP-1, PDZ Domain 3): 1 (A450 nm 0-1)
Classification ([3]; PDZ MUPP-1, PDZ Domain 11): 2 (A450 nm 1-2)
Molecule: KTMPAATYRLLTGQEQPVYL (Biotin-KTMPAATYRLLTGQEQPVYL) [MINT-3]
Classification ([2]; PDZ LIM Protein, PDZ Domain 1): 1 (A450 nm 0-1)

Classification ([1]; PDZ KIAA807 (domain not given)): 2 (A450 nm 1-2)
Molecule: RNIEEVYVGGKQVVPFSSSV (Biotin-RNIEEVYVGGKQVVPFSSSV) [Nedasin (s-form)]
Classification ([2]; PDZ BAI-1, PDZ Domain 2): 1 (A450 nm 0-1)
Classification ([2]; PDZ BAI-1, PDZ Domain 6): 1 (A450 nm 0-1)
